Measured values: US10982196B2, “Immunotherapy targeting intracellular pathogens” (LIFE SCIENCES RESEARCH PARTNERS VZW, priority 2008, dated 2021)

Tests used:
[1] = system: IDO (indolamine-2,3-dioxygenase); assay type: cell-based, BALB/c; settings: dendritic cells pre-loaded with SEQ ID NO:5 or 7, 8 h co-culture with CD4+ T cells of mice immunised with SEQ ID NO:6 or 8; example written in present tense
[2] = system: induced nitric oxide synthase; assay: Reactive nitrogen intermediates in antigen-presenting cells, RT-PCR for transcripts of nitric oxide synthase; assay type: cell-based, C57Bl/6 mice; settings: dendritic cells co-cultured 6 h with CD4+ T cells and peptide of SEQ ID NO:4; example written in present tense
dendritic cells [3] = assay: Reactive oxygen intermediates in antigen-presenting cells co-cultured with CD4+ T cells expanded with modified ESAT-6 epitope, Facs (DCFDA); assay type: cell-based, C57Bl/6 mice; settings: dendritic cells loaded with SEQ ID NO:3, 2 h co-culture with CD4+ T cells expanded with SEQ ID NO:4; example written in present tense
dendritic cells [4] = settings: dendritic cells loaded with peptide of SEQ ID NO:1, 2 h co-culture with CD4+ T cell line expanded with the peptide; compared with line expanded with SEQ ID NO:1; FIG. 1
Experimental: Adenovirus of serotype 5 (Ad.RR5, E1/E3-deleted) was used in these experiments. Thus, 5 μL of a solution containing 2×10^11 viral particles/ml was administered by the intravenous route to 6 weeks old C57Bl/6 mice. Ten days later, the spleen of such mice was recovered and CD4+ T cells purified by magnetic sorting.
CD4+ T cells obtained from Ad.RR5-immunized mice were cultured in the presence of T lymphocyte-depleted spleen adherent cells used as antigen-presenting cells pre-incubated with either peptide of SEQ ID NO:1 or peptide of SEQ ID NO:2. After two cycles of restimulation, the CD4+ T cell lines were allowed to rest for 10 days. […] The generation of reactive oxygen intermediates (ROI) by dendritic cells was then evaluated after 2 h of co-culture. Dendritic cells were prepared from the spleen of C57Bl/6 mice by sorting on magnetic beads coated with an anti-CD11c specific antibody.
Thus, 10^5 dendritic cells were incubated for 1 h with 10 μM DCFDA, a derivative of fluorescein used as an indicator of ROI generation. […] Fluorescence increases generated by DCFDA oxidation by reactive oxygen intermediates are read in a Facs gated on CD11c(+) cells.

For “CGHCDKHIEQYLK (modified Th2R T-cell epitope; (1)..(4) thioreductase motif) [SEQ ID NO:6]”, the “expression of IDO in dendritic cells” value [1] was “induces a reverse signalling leading to expression of IDO”.
With “CGHCEKKICKMEK (modified T-cell epitope of CSP antigen Plasmodium falciparum; (1)..(4) modified T-cell epitope) [SEQ ID NO:8]” the “expression of IDO in dendritic cells” value [1] was “induces a reverse signalling leading to expression of IDO”.
With “CGHCFAGIEAAAS (modified ESAT6 T-cell epitope; (1)..(4) thioreductase motif) [SEQ ID NO:4]” the “production of reactive nitrogen intermediates in antigen-presenting cells” value [2] was “shown to be induced” and the “production of reactive oxygen intermediates in antigen-presenting cells” value (dendritic cells [3]) was “shown to be induced”.
With “CHGCPTLLYVLFEV (modified T-cell epitope of capsid protein adenovirus serotype 5; (1)..(4) thioreductase motif) [SEQ ID NO:2]” the “ROI produced by dendritic cells” value (dendritic cells [4]) was “significantly more ROI”.
